Experimental findings from article PMC10415461 (Molecular Diversity, 2022) are described below.

Values after ≈ are worked out from the molar mass of the structure shown. Where two headings read alike, the source gives them in different places. Some results are limits rather than exact numbers.

Series [1] relates to E. coli (ATCC 8739). The series can be described thus: Antibacterial MIC, standard agar cup diffusion method. The format is cell-based. As to conditions: Escherichia coli, ATCC8739, 37 °C, 24 h, read-out: MIC E. coli (Gram-negative). As for the experimental part: (§1) The antibacterial and antifungal activities of compounds, ketone 1, 2a-j, and 5a-i were evaluated in vitro against S. aureus (ATCC 6538), P. aeruginosa (ATCC 10,145), E. coli (ATCC 8739), and C. albicans (ATCC 10,231). […] Standard strains of Staphylococcus aureus (ATCC 6538), Pseudomonas aeruginosa (ATCC 10,145), and Escherichia coli (ATCC 8739) were obtained from microbiological resource center, Faculty of Agriculture, Ain Shams University, Cairo, Egypt. All isolates were maintained at -70 °C in Trypticase Soya Broth (TSB, Becton, and Dickinson) with 10% glycerol. Prior to inoculation, all isolates were subcultured at 37 °C for 24 h on Trypticase Soya Agar (TSA, Becton, and Dickinson) and TSB, respectively.
(§2) The plates were rotated slowly to ensure uniform distribution of the microorganisms and then allowed to solidify on a flat surface. After solidification, four equidistant and circular wells of 10 mm diameter were carefully punched using a sterile cork bore. Twofold serial dilutions of the tested compounds using DMSO were performed. An equal volume of 100µL of each dilution was applied separately to each well in three replicates using a micropipette. All plates were incubated at 37 °C for 24 h. The inhibition zones were measured, and their average was calculated.

The test system of series [2] is P. aeruginosa (ATCC 10,145). Described as above. As to conditions: Pseudomonas aeruginosa, ATCC 10145, 37 °C, 24 h, read-out: MIC P. aeruginosa (Gram-negative). The class given is cell-based. The procedure:
as §1, §2

Series [3] has as its system C. albicans (ATCC 10,231). The series can be described thus: Antifungal MIC, agar cup diffusion method. The class given is cell-based, Candida albicans. The following applies: Sabouraud agar, 37 °C; for MIC: Candida albicans, ATCC 10,231, 24 h, read-out: MIC C. albicans (Fungi). The procedure:
The antibacterial and antifungal activities of compounds, ketone 1, 2a-j, and 5a-i were evaluated in vitro against S. aureus (ATCC 6538), P. aeruginosa (ATCC 10,145), E. coli (ATCC 8739), and C. albicans (ATCC 10,231). […] The antifungal activity of compounds 1, 2a-j, and 5a-i and ketoconazole were determined according to the agar cup diffusion method at Deraya University, Faculty of Pharmacy, Department of Microbiology.
Fungal strains and culture conditions. […] Standard strain of Candida albicans (ATCC 10,231) was obtained from microbiological resource center, Faculty of Agriculture, Ain Shams University, Cairo, Egypt. The isolate was maintained at -70 °C in Trypticase Soya Broth (TSB, Becton, and Dickinson) with 10% glycerol. Prior to inoculation, the isolate was subcultured at 37 °C for 24 h on Trypticase Soya Agar (TSA, Becton, and Dickinson) and TSB, respectively.
as §2

Series [4] relates to S. aureus (ATCC 6538). The series can be described thus: Antibacterial MIC, standard agar cup diffusion method. The format is cell-based, Staphylococcus aureus. The following applies: 24 h; for MIC: Staphylococcus aureus, ATCC6538, 37 °C, read-out: MIC S. aureus (Gram-positive). The procedure:
as §1, §2

A short description of series [5]: Solubility determination in phosphate buffer. The following applies: aqueous buffer, thermodynamic from solid. The format is physicochemical. The procedure:
A sample of drug was accurately weighed and dissolved in 100 ml of distilled water to prepare 100 mcg/ml stock solutions. Appropriate dilution of the stock solution with phosphate buffer pH 6.8 and 7.8 was then made to prepare a working solution of 40mcg/ml.
After determination of λ max of drug, a calibration curve was constructed by preparing solutions containing different concentrations of (1–5 mcg/ml) from stock solution after appropriate dilution with phosphate buffer pH 6.8. The UV absorbance of the prepared sample solutions were measured at the predetermined λ max using phosphate buffer pH 6.8 as a blank.
Aqueous solubility of the complexes was measured as a function of pH. An excess of each derivative was placed into suitable stoppered containers. […] The samples were immersed in a water bath thermostatized at 37 ± 1^◦C and 100 rpm and periodically shaken for 48 h. Once the equilibrium was reached, the pH of the supernatant was regarded.

A short description of series [6]: physchem. The following applies: pH 7.8. As for the experimental part:
The n-octanol/water apparent partition coefficient at the isoelectric point (or distribution constant) was measured by using the traditional shake-flask technique. The pH of the aqueous buffer was first adjusted to isoelectric point of the compound. The n-octanol and aqueous phases were then mutually saturated before the measurement. […] The samples were agitated for 5h at water bath shaker thermostatized at 25 ± 1^◦C and 100 rpm. The concentration of the solute was determined in the aqueous and organic phases at the isoelectric point by UV spectroscopy the log p value was calculated as follows: […].

Series [7] addresses S. aureus DNA gyrase (Staphylococcus aureus, UniProt P0A0K8+P20831). The series can be described thus: Staphylococcus aureus DNA gyrase supercoiling assay. The format is biochemical. As to conditions: supercoiling of relaxed pBR322, 37 °C, 30 min; read-out: S. aureus DNA gyrase IC50 ± SD. As for the experimental part:
As antibacterial agents, fluoroquinolones act by targeting and inhibiting DNA gyrase (topo II) which is an essential enzyme involved in the DNA replication process.
Staphylococcus aureus DNA gyrase was incubated at 37 °C for 30 min in a total reaction volume of 30 μl containing 40 mM HEPES. KOH (pH 7.6), 10 mM magnesium acetate, 10 mM DTT, 2 mM ATP, 500 mM potassium glutamate, 0.05 mg/ml albumin and Relaxed pBR322. DNA gyrase supercoiling reactions catalyzed by S. aureus gyrase, Stop reaction by adding 30 μL of STEB and 30 μL of chloroform/isoamyl alcohol (v:v, 24:1),and then Vortex briefly ~ 5 secs and centrifuge for 1 min. after which 20 µL of this was loaded on a 1% agarose gel that was then run at ~ 75 V for approximately 2 h. The gel was stained by (0.5 mg/L) ethidium bromide in water. Fluorescent images were taken at a wavelength of 300 nm on a UV transilluminator imaging system. The fluorescence intensity of the supercoiled plasmid reaction product was quantitated using ImagQuant software (Molecular Dynamics).

Where [8] appears, read: phosphate buffer pH 6.8, 37 °C, read-out: Solubility pH 6.8.
Where [9] appears, read: phosphate buffer pH 7.8, 37 °C, read-out: Solubility pH 7.8.

S. aureus DNA gyrase, sequence (P20831 whole entry): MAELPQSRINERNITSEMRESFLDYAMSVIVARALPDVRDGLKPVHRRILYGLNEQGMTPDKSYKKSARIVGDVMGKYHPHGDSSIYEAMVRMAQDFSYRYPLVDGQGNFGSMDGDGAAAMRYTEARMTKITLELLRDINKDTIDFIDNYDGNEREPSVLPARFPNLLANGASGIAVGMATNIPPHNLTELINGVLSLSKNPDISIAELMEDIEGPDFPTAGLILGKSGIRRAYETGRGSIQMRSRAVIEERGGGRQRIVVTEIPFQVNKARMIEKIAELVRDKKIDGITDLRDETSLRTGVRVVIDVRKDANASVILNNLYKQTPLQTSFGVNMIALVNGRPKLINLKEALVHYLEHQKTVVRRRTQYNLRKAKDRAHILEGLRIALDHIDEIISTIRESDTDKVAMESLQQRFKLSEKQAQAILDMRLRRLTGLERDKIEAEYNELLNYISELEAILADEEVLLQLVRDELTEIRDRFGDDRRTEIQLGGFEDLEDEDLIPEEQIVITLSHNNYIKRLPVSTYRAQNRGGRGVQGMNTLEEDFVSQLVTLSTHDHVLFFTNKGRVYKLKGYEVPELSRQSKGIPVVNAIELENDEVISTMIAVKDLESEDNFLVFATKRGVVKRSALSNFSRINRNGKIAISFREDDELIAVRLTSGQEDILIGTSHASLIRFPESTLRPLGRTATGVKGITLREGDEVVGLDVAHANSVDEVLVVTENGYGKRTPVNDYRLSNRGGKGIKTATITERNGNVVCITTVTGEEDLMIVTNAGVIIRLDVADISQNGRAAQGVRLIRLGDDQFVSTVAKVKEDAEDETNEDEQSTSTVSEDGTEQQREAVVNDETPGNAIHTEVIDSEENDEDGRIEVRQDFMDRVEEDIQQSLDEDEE
S. aureus DNA gyrase, sequence (P0A0K8 whole entry): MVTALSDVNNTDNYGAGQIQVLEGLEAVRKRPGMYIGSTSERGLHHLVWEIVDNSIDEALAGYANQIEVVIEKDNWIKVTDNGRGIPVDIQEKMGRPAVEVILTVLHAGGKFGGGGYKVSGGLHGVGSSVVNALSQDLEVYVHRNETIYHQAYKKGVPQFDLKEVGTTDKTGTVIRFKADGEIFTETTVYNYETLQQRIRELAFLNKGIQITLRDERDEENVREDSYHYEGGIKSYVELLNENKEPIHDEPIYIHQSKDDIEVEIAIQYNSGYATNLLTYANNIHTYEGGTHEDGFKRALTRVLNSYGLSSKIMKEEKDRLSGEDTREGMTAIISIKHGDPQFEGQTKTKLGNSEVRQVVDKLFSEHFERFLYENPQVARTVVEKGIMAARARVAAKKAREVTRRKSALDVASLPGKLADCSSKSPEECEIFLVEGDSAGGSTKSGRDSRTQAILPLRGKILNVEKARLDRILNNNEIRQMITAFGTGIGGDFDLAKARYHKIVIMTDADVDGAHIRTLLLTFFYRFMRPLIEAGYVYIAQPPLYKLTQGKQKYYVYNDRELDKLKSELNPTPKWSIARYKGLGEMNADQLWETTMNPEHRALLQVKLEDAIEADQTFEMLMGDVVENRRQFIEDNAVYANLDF

A word on the MIC: it is the least concentration at which growth counts as inhibited. On to `COc1ccc(/C=C/C(=O)c2ccc(NC(=O)N3CCN(c4cc5c(cc4F)c(=O)c(C(=O)O)cn5C4CC4)CC3)cc2)cc1` [Compound 2g], for which the minimum inhibitory concentration (MIC) in series [1] is 17 µg/mL (≈ 27.8 µM); in series [2], 6.25 µg/mL (≈ 10.2 µM); in series [3] it was above 100 µg/mL; in series [4], 8 µg/mL (≈ 13.1 µM).
In general, solubility refers to the dissolved amount per volume that the medium holds. A word on the logD: it is lipophilicity at a set pH, counting ionised and neutral species. A higher logD goes with higher lipophilicity. As for `O=C(/C=C/c1ccc(Br)cc1)c1ccc(NC(=O)N2CCN(c3cc4c(cc3F)c(=O)c(C(=O)O)cn4C3CC3)CC2)cc1` [Compound 2d], the MIC in series [1] was 4.78 µg/mL (≈ 7.25 µM); in series [2] it was 7.25 µg/mL (≈ 11 µM); in series [3], above 100 µg/mL; in series [4], 2.65 µg/mL (≈ 4.02 µM). For the same compound, the solubility at 48 h in series [5] (setting [8]) worked out at 140 µg/mL (≈ 212 µM); in series [5] (setting [9]), 160 µg/mL (≈ 243 µM). This compound registered a log distribution coefficient (logD) in series [6] of 0.42.
By IC50 is commonly meant the point on the concentration scale where inhibition reaches its midpoint. Regarding `O=C(/C=C/c1ccccc1)c1ccc(NC(=O)N2CCN(c3cc4c(cc3F)c(=O)c(C(=O)O)cn4C3CC3)CC2)cc1` [Compound 2a], the MIC in series [1] is 0.64 µg/mL (≈ 1.1 µM); in series [2], 1.12 µg/mL (≈ 1.93 µM); in series [3], above 100 µg/mL; in series [4], 0.74 µg/mL (≈ 1.27 µM). The solubility at 48 h came out at 210 µg/mL (≈ 362 µM) in series [5] (setting [8]) and 150 µg/mL (≈ 258 µM) in series [5] (setting [9]). In series [6], the logD turned out to be 0.24. For the same compound, in series [7], the concentration for half-maximal inhibition (IC50) is 3.47 ± 0.18 µM.
For the compound `CC(=O)N1CCN(c2ccc(OCC3COC(Cn4ccnc4)(c4ccc(Cl)cc4Cl)O3)cc2)CC1` (stereo not drawn) [Ketoconazole, reference compound], in series [3], the minimal inhibitory concentration (MIC) turned out to be 2.6 µg/mL (≈ 4.89 µM).
As to `COc1ccc(/C=C/C(=O)c2ccc(NC(=O)N3CCN(c4cc5c(cc4F)c(=O)c(C(=O)O)cn5C4CC4)CC3)cc2)cc1OC` [Compound 2i], the minimal inhibitory concentration (MIC) in series [1] was 4.13 µg/mL (≈ 6.45 µM); in series [2], 17 µg/mL (≈ 26.5 µM); in series [3] it was above 100 µg/mL; in series [4], 6.3 µg/mL (≈ 9.83 µM). Also, the solubility at 48 h worked out at 150 µg/mL (≈ 234 µM) in series [5] (setting [8]) and 190 µg/mL (≈ 297 µM) in series [5] (setting [9]). Moreover, in series [6], the “Lipophilicity (log p)” value is recorded as “− 0.06”.
As for `CN(C)c1ccc(/C=C/C(=O)c2ccc(NC(=O)N3CCN(c4cc5c(cc4F)c(=O)c(C(=O)O)cn5C4CC4)CC3)cc2)cc1` [Compound 2h], the minimal inhibitory concentration (MIC) came out at 5.25 µg/mL (≈ 8.42 µM) in series [1], 3.12 µg/mL (≈ 5.01 µM) in series [2], 84.2 µg/mL (≈ 135 µM) in series [3] and 1.2 µg/mL (≈ 1.92 µM) in series [4]. Moreover, the solubility at 48 h amounted to 680 µg/mL (≈ 1090 µM) in series [5] (setting [8]) and 780 µg/mL (≈ 1250 µM) in series [5] (setting [9]). In series [6], the “Lipophilicity (log p)” value is “− 0.21”.
As for `COc1cc(/C=C/C(=O)c2ccc(NC(=O)N3CCN(c4cc5c(cc4F)c(=O)c(C(=O)O)cn5C4CC4)CC3)cc2)cc(OC)c1OC` [Compound 2j], the MIC in series [1] is 5.13 µg/mL (≈ 7.65 µM); in series [2], 4.2 µg/mL (≈ 6.26 µM); in series [3] it was above 100 µg/mL; in series [4], 1.48 µg/mL (≈ 2.21 µM). The solubility at 48 h worked out at 180 µg/mL (≈ 268 µM) in series [5] (setting [8]) and 150 µg/mL (≈ 224 µM) in series [5] (setting [9]). This compound also came in with a logD in series [6] of 0.34.
With `Cc1ccc(/C=C/C(=O)c2ccc(NC(=O)N3CCN(c4cc5c(cc4F)c(=O)c(C(=O)O)cn5C4CC4)CC3)cc2)cc1` [Compound 2f], the minimal inhibitory concentration (MIC) in series [1] was 9.33 µg/mL (≈ 15.7 µM); in series [2], 3.7 µg/mL (≈ 6.22 µM); in series [3], above 100 µg/mL; in series [4], 0.94 µg/mL (≈ 1.58 µM). Moreover, the figures for the solubility at 48 h in series [5] (setting [8]) and in series [5] (setting [9]) were 160 µg/mL (≈ 269 µM) and 170 µg/mL (≈ 286 µM), respectively. In series [6], this compound had a logD of 0.4. In addition, in series [7], the concentration for half-maximal inhibition (IC50) worked out at 1.77 ± 0.09 µM.
On to `O=C(/C=C/c1ccc(F)cc1)c1ccc(NC(=O)N2CCN(c3cc4c(cc3F)c(=O)c(C(=O)O)cn4C3CC3)CC2)cc1` [Compound 2e], for which the minimum inhibitory concentration (MIC) in series [1] is 0.53 µg/mL (≈ 0.885 µM); in series [2], 0.96 µg/mL (≈ 1.6 µM); in series [3], 2.03 to 3.89 µg/mL (≈ 3.39 to 6.5 µM); in series [4] it was 0.89 µg/mL (≈ 1.49 µM). The “MIC C. albicans (Fungi)” value in series [3] (24 h) came out at 2.03 µg/mL (≈ 3.39 µM). Moreover, the solubility at 48 h in series [5] (setting [8]) is 160 µg/mL (≈ 267 µM); in series [5] (setting [9]) it was 180 µg/mL (≈ 301 µM). The logD in series [6] amounted to 0.07. For the same compound, in series [7], the IC50 is 3.81 ± 0.2 µM.
As for `CC(=O)c1ccc(NC(=O)N2CCN(c3cc4c(cc3F)c(=O)c(C(=O)O)cn4C3CC3)CC2)cc1` [Compound 1], the MIC in series [1] was 0.6 µg/mL (≈ 1.22 µM); in series [2], 1.2 µg/mL (≈ 2.44 µM); in series [3] it was above 100 µg/mL; in series [4] it was 0.7 µg/mL (≈ 1.42 µM). Moreover, the “MIC S. aureus (Gram-positive)” value in series [4] (37 °C) amounted to 0.70 µg/mL (≈ 1.42 µM).
